The compounds below were run against T1, Beta-secretase 1 (Homo sapiens, UniProt P56817) (assay: Inhibition of human recombinant BACE1 at 2 uM).
T1 sequence (P56817 whole entry): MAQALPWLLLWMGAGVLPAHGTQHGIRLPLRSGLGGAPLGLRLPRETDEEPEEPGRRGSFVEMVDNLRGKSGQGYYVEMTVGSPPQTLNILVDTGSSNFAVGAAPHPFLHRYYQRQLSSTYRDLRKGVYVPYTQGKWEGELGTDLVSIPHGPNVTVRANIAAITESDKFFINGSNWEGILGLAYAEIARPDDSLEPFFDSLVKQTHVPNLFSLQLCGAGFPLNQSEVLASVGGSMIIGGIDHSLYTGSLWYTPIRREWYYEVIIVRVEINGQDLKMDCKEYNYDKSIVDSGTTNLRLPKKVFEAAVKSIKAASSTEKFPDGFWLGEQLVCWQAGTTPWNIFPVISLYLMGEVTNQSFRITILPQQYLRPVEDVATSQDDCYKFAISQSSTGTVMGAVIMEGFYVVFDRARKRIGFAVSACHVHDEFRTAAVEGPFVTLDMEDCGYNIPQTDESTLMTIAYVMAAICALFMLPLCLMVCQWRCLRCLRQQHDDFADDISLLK

SMILES	inhibition [%]
CC(C)C[C@H](NC(=O)[C@@H](NC(=O)[C@@H](N)CNC(=O)c1ccc(O)cc1O)C(C)C)C(=O)N[C@@H](Cc1ccccc1)[C@@H](O)C(=O)Nc1cccc(C(=O)O)c1	86
CC(C)C[C@H](NC(=O)[C@@H](NC(=O)[C@@H](N)CNC(=O)c1cccc(O)c1)C(C)C)C(=O)N[C@@H](Cc1ccccc1)[C@@H](O)C(=O)Nc1cccc(C(=O)O)c1	91
CC(C)C[C@H](NC(=O)[C@@H](NC(=O)[C@@H](N)CNC(=O)c1nn[nH]n1)C(C)C)C(=O)N[C@@H](Cc1ccccc1)[C@@H](O)C(=O)Nc1cccc(-c2nn[nH]n2)c1	100
CC(C)C[C@H](NC(=O)[C@@H](NC(=O)[C@@H](N)CNC(=O)c1[nH]c(=O)[nH]c(=O)c1F)C(C)C)C(=O)N[C@@H](Cc1ccccc1)[C@@H](O)C(=O)Nc1cccc(-c2nn[nH]n2)c1	100
CC(C)C[C@H](NC(=O)[C@@H](NC(=O)[C@@H](N)CNC(=O)c1ccoc1)C(C)C)C(=O)N[C@@H](Cc1ccccc1)[C@@H](O)C(=O)Nc1cccc(C(=O)O)c1	82
CC(C)[C@H](NC(=O)[C@@H](N)CNC(=O)c1cc(O)ccc1O)C(=O)N[C@@H](CC1CCCCC1)C(=O)N[C@@H](Cc1ccccc1)[C@@H](O)C(=O)Nc1cccc(-c2nn[nH]n2)c1	99
CC(C)[C@H](NC(=O)[C@@H](N)CNC(=O)c1nn[nH]n1)C(=O)N[C@@H](CC1CCCCC1)C(=O)N[C@@H](Cc1ccccc1)[C@@H](O)C(=O)Nc1cccc(-c2nn[nH]n2)c1	100
CC(C)C[C@H](NC(=O)[C@@H](NC(=O)[C@@H](N)CNC(=O)c1cc(O)cc(O)c1)C(C)C)C(=O)N[C@@H](Cc1ccccc1)[C@@H](O)C(=O)Nc1cccc(C(=O)O)c1	94
CC(C)C[C@H](NC(=O)[C@@H](NC(=O)[C@@H](N)CNC(=O)c1cc(O)nc(O)n1)C(C)C)C(=O)N[C@@H](Cc1ccccc1)[C@@H](O)C(=O)Nc1cccc(C(=O)O)c1	90

Results, then the compound that gave them:

inhibition [%]	SMILES
99	CC(C)C[C@H](NC(=O)[C@@H](NC(=O)[C@@H](N)CNC(=O)c1cc(O)ccc1O)C(C)C)C(=O)N[C@@H](Cc1ccccc1)[C@@H](O)C(=O)Nc1cccc(-c2nn[nH]n2)c1
89	CC(C)C[C@H](NC(=O)[C@@H](NC(=O)[C@@H](N)CNC(=O)c1cccc(O)c1O)C(C)C)C(=O)N[C@@H](Cc1ccccc1)[C@@H](O)C(=O)Nc1cccc(C(=O)O)c1
75	CC(C)C[C@H](NC(=O)[C@@H](NC(=O)[C@@H](N)CNC(=O)c1ccccc1O)C(C)C)C(=O)N[C@@H](Cc1ccccc1)[C@@H](O)C(=O)Nc1cccc(C(=O)O)c1
13	CC(C)C[C@H](NC(=O)[C@@H](NC(=O)[C@@H](N)CNC(=O)[C@H]1CC(=O)NC(=O)N1)C(C)C)C(=O)N[C@@H](Cc1ccccc1)[C@@H](O)C(=O)Nc1cccc(C(=O)O)c1
99	CC(C)C[C@H](NC(=O)[C@@H](NC(=O)[C@@H](N)CNC(=O)c1nc(O)nc(O)c1I)C(C)C)C(=O)N[C@@H](Cc1ccccc1)[C@@H](O)C(=O)Nc1cccc(C(=O)O)c1
99	CC(C)C[C@H](NC(=O)[C@@H](NC(=O)[C@@H](N)CNC(=O)c1nc(O)nc(O)c1F)C(C)C)C(=O)N[C@@H](Cc1ccccc1)[C@@H](O)C(=O)Nc1cccc(C(=O)O)c1
69	CC(C)C[C@H](NC(=O)[C@@H](NC(=O)[C@@H](N)CNC(=O)c1cc[nH]c1)C(C)C)C(=O)N[C@@H](Cc1ccccc1)[C@@H](O)C(=O)Nc1cccc(C(=O)O)c1
98	CC(C)C[C@H](NC(=O)[C@@H](NC(=O)[C@@H](N)CNC(=O)c1cc(O)ccc1O)C(C)C)C(=O)N[C@@H](Cc1ccccc1)[C@@H](O)C(=O)Nc1cccc(C(=O)O)c1
100	CC(C)[C@H](NC(=O)[C@@H](N)CNC(=O)c1[nH]c(=O)[nH]c(=O)c1F)C(=O)N[C@@H](CC1CCCCC1)C(=O)N[C@@H](Cc1ccccc1)[C@@H](O)C(=O)Nc1cccc(-c2nn[nH]n2)c1
40	CC(C)C[C@H](NC(=O)[C@@H](NC(=O)[C@@H](N)CNC(=O)[C@@H]1CC(=O)NC(=O)N1)C(C)C)C(=O)N[C@@H](Cc1ccccc1)[C@@H](O)C(=O)Nc1cccc(C(=O)O)c1

These compounds were tested against T1, Beta-secretase 1 (assay: Inhibition of human recombinant BACE1 at 0.2 uM).

SMILES	inhibition [%]
CC(C)C[C@H](NC(=O)[C@@H](NC(=O)[C@@H](N)CNC(=O)c1ccc(O)cc1O)C(C)C)C(=O)N[C@@H](Cc1ccccc1)[C@@H](O)C(=O)Nc1cccc(C(=O)O)c1	59
CC(C)C[C@H](NC(=O)[C@@H](NC(=O)[C@@H](N)CNC(=O)c1cccc(O)c1)C(C)C)C(=O)N[C@@H](Cc1ccccc1)[C@@H](O)C(=O)Nc1cccc(C(=O)O)c1	49
CC(C)C[C@H](NC(=O)[C@@H](NC(=O)[C@@H](N)CNC(=O)c1nn[nH]n1)C(C)C)C(=O)N[C@@H](Cc1ccccc1)[C@@H](O)C(=O)Nc1cccc(-c2nn[nH]n2)c1	98
CC(C)C[C@H](NC(=O)[C@@H](NC(=O)[C@@H](N)CNC(=O)c1[nH]c(=O)[nH]c(=O)c1F)C(C)C)C(=O)N[C@@H](Cc1ccccc1)[C@@H](O)C(=O)Nc1cccc(-c2nn[nH]n2)c1	98
CC(C)C[C@H](NC(=O)[C@@H](NC(=O)[C@@H](N)CNC(=O)c1ccoc1)C(C)C)C(=O)N[C@@H](Cc1ccccc1)[C@@H](O)C(=O)Nc1cccc(C(=O)O)c1	38
CC(C)[C@H](NC(=O)[C@@H](N)CNC(=O)c1cc(O)ccc1O)C(=O)N[C@@H](CC1CCCCC1)C(=O)N[C@@H](Cc1ccccc1)[C@@H](O)C(=O)Nc1cccc(-c2nn[nH]n2)c1	92
CC(C)[C@H](NC(=O)[C@@H](N)CNC(=O)c1nn[nH]n1)C(=O)N[C@@H](CC1CCCCC1)C(=O)N[C@@H](Cc1ccccc1)[C@@H](O)C(=O)Nc1cccc(-c2nn[nH]n2)c1	98
CC(C)C[C@H](NC(=O)[C@@H](NC(=O)[C@@H](N)CNC(=O)c1cc(O)cc(O)c1)C(C)C)C(=O)N[C@@H](Cc1ccccc1)[C@@H](O)C(=O)Nc1cccc(C(=O)O)c1	60
CC(C)C[C@H](NC(=O)[C@@H](NC(=O)[C@@H](N)CNC(=O)c1cc(O)nc(O)n1)C(C)C)C(=O)N[C@@H](Cc1ccccc1)[C@@H](O)C(=O)Nc1cccc(C(=O)O)c1	54

The remaining lines, values ahead:

inhibition [%]	SMILES
93	CC(C)C[C@H](NC(=O)[C@@H](NC(=O)[C@@H](N)CNC(=O)c1cc(O)ccc1O)C(C)C)C(=O)N[C@@H](Cc1ccccc1)[C@@H](O)C(=O)Nc1cccc(-c2nn[nH]n2)c1
75	CC(C)C[C@H](NC(=O)[C@@H](NC(=O)[C@@H](N)CNC(=O)c1cccc(O)c1O)C(C)C)C(=O)N[C@@H](Cc1ccccc1)[C@@H](O)C(=O)Nc1cccc(C(=O)O)c1
72	CC(C)C[C@H](NC(=O)[C@@H](NC(=O)[C@@H](N)CNC(=O)c1nc(O)nc(O)c1I)C(C)C)C(=O)N[C@@H](Cc1ccccc1)[C@@H](O)C(=O)Nc1cccc(C(=O)O)c1
82	CC(C)C[C@H](NC(=O)[C@@H](NC(=O)[C@@H](N)CNC(=O)c1nc(O)nc(O)c1F)C(C)C)C(=O)N[C@@H](Cc1ccccc1)[C@@H](O)C(=O)Nc1cccc(C(=O)O)c1
84	CC(C)C[C@H](NC(=O)[C@@H](NC(=O)[C@@H](N)CNC(=O)c1cc(O)ccc1O)C(C)C)C(=O)N[C@@H](Cc1ccccc1)[C@@H](O)C(=O)Nc1cccc(C(=O)O)c1
97	CC(C)[C@H](NC(=O)[C@@H](N)CNC(=O)c1[nH]c(=O)[nH]c(=O)c1F)C(=O)N[C@@H](CC1CCCCC1)C(=O)N[C@@H](Cc1ccccc1)[C@@H](O)C(=O)Nc1cccc(-c2nn[nH]n2)c1

What follows are compounds tested against T1, Beta-secretase 1 (assay: Inhibition of BACE1 expressed in HEK293 cells at 100 uM).
Type: cell-based

SMILES	inhibition [%]
CC(C)C[C@H](NC(=O)[C@@H](NC(=O)[C@@H](N)CNC(=O)c1ccc(O)cc1O)C(C)C)C(=O)N[C@@H](Cc1ccccc1)[C@@H](O)C(=O)Nc1cccc(C(=O)O)c1	20
CC(C)C[C@H](NC(=O)[C@@H](NC(=O)[C@@H](N)CNC(=O)c1cccc(O)c1)C(C)C)C(=O)N[C@@H](Cc1ccccc1)[C@@H](O)C(=O)Nc1cccc(C(=O)O)c1	57
CC(C)C[C@H](NC(=O)[C@@H](NC(=O)[C@@H](N)CNC(=O)c1nn[nH]n1)C(C)C)C(=O)N[C@@H](Cc1ccccc1)[C@@H](O)C(=O)Nc1cccc(-c2nn[nH]n2)c1	66
CC(C)C[C@H](NC(=O)[C@@H](NC(=O)[C@@H](N)CNC(=O)c1[nH]c(=O)[nH]c(=O)c1F)C(C)C)C(=O)N[C@@H](Cc1ccccc1)[C@@H](O)C(=O)Nc1cccc(-c2nn[nH]n2)c1	63
CC(C)C[C@H](NC(=O)[C@@H](NC(=O)[C@@H](N)CNC(=O)c1ccoc1)C(C)C)C(=O)N[C@@H](Cc1ccccc1)[C@@H](O)C(=O)Nc1cccc(C(=O)O)c1	4
CC(C)[C@H](NC(=O)[C@@H](N)CNC(=O)c1cc(O)ccc1O)C(=O)N[C@@H](CC1CCCCC1)C(=O)N[C@@H](Cc1ccccc1)[C@@H](O)C(=O)Nc1cccc(-c2nn[nH]n2)c1	69
CC(C)[C@H](NC(=O)[C@@H](N)CNC(=O)c1nn[nH]n1)C(=O)N[C@@H](CC1CCCCC1)C(=O)N[C@@H](Cc1ccccc1)[C@@H](O)C(=O)Nc1cccc(-c2nn[nH]n2)c1	59
CC(C)C[C@H](NC(=O)[C@@H](NC(=O)[C@@H](N)CNC(=O)c1cc(O)cc(O)c1)C(C)C)C(=O)N[C@@H](Cc1ccccc1)[C@@H](O)C(=O)Nc1cccc(C(=O)O)c1	69
CC(C)C[C@H](NC(=O)[C@@H](NC(=O)[C@@H](N)CNC(=O)c1cc(O)nc(O)n1)C(C)C)C(=O)N[C@@H](Cc1ccccc1)[C@@H](O)C(=O)Nc1cccc(C(=O)O)c1	46

Second part, the compound after the results:

inhibition [%]	SMILES
65	CC(C)C[C@H](NC(=O)[C@@H](NC(=O)[C@@H](N)CNC(=O)c1cc(O)ccc1O)C(C)C)C(=O)N[C@@H](Cc1ccccc1)[C@@H](O)C(=O)Nc1cccc(-c2nn[nH]n2)c1
0	CC(C)C[C@H](NC(=O)[C@@H](NC(=O)[C@@H](N)CNC(=O)c1cccc(O)c1O)C(C)C)C(=O)N[C@@H](Cc1ccccc1)[C@@H](O)C(=O)Nc1cccc(C(=O)O)c1
29	CC(C)C[C@H](NC(=O)[C@@H](NC(=O)[C@@H](N)CNC(=O)c1ccccc1O)C(C)C)C(=O)N[C@@H](Cc1ccccc1)[C@@H](O)C(=O)Nc1cccc(C(=O)O)c1
73	CC(C)C[C@H](NC(=O)[C@@H](NC(=O)[C@@H](N)CNC(=O)c1nc(O)nc(O)c1I)C(C)C)C(=O)N[C@@H](Cc1ccccc1)[C@@H](O)C(=O)Nc1cccc(C(=O)O)c1
76	CC(C)C[C@H](NC(=O)[C@@H](NC(=O)[C@@H](N)CNC(=O)c1nc(O)nc(O)c1F)C(C)C)C(=O)N[C@@H](Cc1ccccc1)[C@@H](O)C(=O)Nc1cccc(C(=O)O)c1
58	CC(C)C[C@H](NC(=O)[C@@H](NC(=O)[C@@H](N)CNC(=O)c1cc(O)ccc1O)C(C)C)C(=O)N[C@@H](Cc1ccccc1)[C@@H](O)C(=O)Nc1cccc(C(=O)O)c1
84	CC(C)[C@H](NC(=O)[C@@H](N)CNC(=O)c1[nH]c(=O)[nH]c(=O)c1F)C(=O)N[C@@H](CC1CCCCC1)C(=O)N[C@@H](Cc1ccccc1)[C@@H](O)C(=O)Nc1cccc(-c2nn[nH]n2)c1

Each compound was assayed against T1, Beta-secretase 1 (assay: Inhibition of human recombinant BACE1).

SMILES	IC50 [nM]
CC(C)C[C@H](NC(=O)[C@@H](NC(=O)[C@@H](N)CNC(=O)c1[nH]c(=O)[nH]c(=O)c1F)C(C)C)C(=O)N[C@@H](Cc1ccccc1)[C@@H](O)C(=O)Nc1cccc(-c2nnn[nH]2)c1	6.5
CC(C)[C@H](NC(=O)[C@@H](N)CNC(=O)c1nnn[nH]1)C(=O)N[C@@H](CC1CCCCC1)C(=O)N[C@@H](Cc1ccccc1)[C@@H](O)C(=O)Nc1cccc(-c2nnn[nH]2)c1	3.3
CC(C)[C@H](NC(=O)[C@@H](N)CNC(=O)c1[nH]c(=O)[nH]c(=O)c1F)C(=O)N[C@@H](CC1CCCCC1)C(=O)N[C@@H](Cc1ccccc1)[C@@H](O)C(=O)Nc1cccc(-c2nnn[nH]2)c1	5.6
